Results published in patent US20250288584A1, “COMBINATIONS COMPRISING POSITIVE ALLOSTERIC MODULATORS OR ORTHOSTERIC AGONISTS OF METABOTROPIC GLUTAMATERGIC RECEPTOR SUBTYPE 2 AND THEIR USE” (JANSSEN PHARMACEUTICA NV, priority 2014, published 2025).
Several values for one entry are separate records, joined by “and”; a condition that tells them apart may be missing. Equal entries are not always repeated. Entries after “also recorded” stand apart in the source; their conditions may differ.

Tests used:
paroxysmal dystonia = conditions: dt^sz mutant hamster; cited from earlier work
[1] = Minimal motor impairment (rotarod); type: in vivo, mice; conditions: for # rotarod motor impairment/# tested: 0.5 h
Description: Acute MMI was assessed by a combination of direct observations of the animal for overt symptoms of the animal's neurological or muscular function. In mice, the rotarod procedure was used to disclose minimal muscular or neurological impairment. When a mouse is placed on a rod that rotates at a speed of 6 rpm, the animal can maintain its equilibrium for long periods of time. The animal was considered toxic if it fell off this rotating rod three times during a 1 min period.
In the determination of an ED50 or TD50 for each test compound, the first dose administered is usually the same dose as that used in a successful TPE determination.
If the initial dose employed was effective or toxic in more than 50% of animals, the next dose would be one-half that of the initial dose; if the initial dose was effective or toxic in less than 50% of animals, the following dose would be twice that of the initial dose. Third and fourth doses were selected to produce an evenly spaced dose response line. There should be a minimum of 4 points either including or lying between 0 and 100%.

[2] = tested on: 6 Hz (32 mA) psychomotor seizures; test: 6 Hz psychomotor seizure test, 32 mA (incl. TPE determination); type: in vivo, mice; conditions: for # protected/# tested: 0.5 h; for ED50 (95% CI) 32 mA: s.c.; for ED50 (95% CI) 32 mA / ED50: at TPE; for ED50: Mus musculus, sc, read-out: ED50 (95% CI) 32 mA
Description: Test compounds were administered using an optimal fluid volume to body fluid ratio. Test compounds were administered to mice in a volume of 0.01 mL/g of body weight (White H. S., et al., General Principles: Experimental selection, quantification, and evaluation of antiepileptic drugs, in Antiepileptic Drugs, Fourth Edition, […], and B. S. Meldrum, Editors. 1995, Raven Press, Ltd.: New York, pp. 99-110). For subcutaneous (s.c.) administration, the test compounds were administered into a loose fold of skin along the back of the animal except compound 6-b, which was administered orally (p.o). […] The animals were maintained on an adequate diet (Prolab RMH 3000) and allowed free access to food and water, except during the short time they were removed from their cage for testing. Animals newly received in the laboratory were allowed sufficient time to correct for possible food and water restriction incurred during transit before being employed in testing. All mice were housed in plastic cages in specially constructed rooms with controlled humidity, exchange of air and controlled lighting (12 hours on-12 hours off). The animals were housed, fed, and handled in a manner consistent with the recommendations in the National Council Publication, “Guide for the Care and Use of Laboratory Animals”. In the determination of an ED50 or TD50 for each test compound, the first dose administered is usually the same dose as that used in a successful TPE determination. […] Third and fourth doses were selected to produce an evenly spaced dose response line. […] TPE was determined using the 6 Hz (32 mA) assay. […] The 6 Hz seizure test is used as a model of pharmacoresistant limbic seizures. […] Focal seizures were induced in mice via corneal stimulation (6 Hz, 0.2 msec rectangular pulse, 3 sec duration; Barton et al. 2001). Mice were tested at either 32 mA or 44 mA. […] The seizures that arise from corneal stimulation in this assay are characterized by a minimal clonic phase followed by stereotyped automatistic behaviors including stun, forelimb clonus, twitching of the vibrissae, and Straub-tail. Animals not displaying these behaviors were considered protected.

corneal kindled seizures = test: Mouse corneal kindling model; type: in vivo, mice; conditions: Racine score 0-5
Description: After the mice reached a stable kindled state, the test compound or vehicle was administered and, at the previously determined TPE, each animal was given the electrical stimulus indicated above. […] One dose of LEV and two doses of Co.

[3] = tested on: 6 Hz (44 mA) psychomotor seizures; test: 6 Hz psychomotor seizure test, 44 mA (alone, combination with LEV, isobolographic study); type: in vivo, mice; conditions: for ED50: at TPE, read-out: ED50 (95% CI) 44 mA
Description: Test compounds were administered using an optimal fluid volume to body fluid ratio. Test compounds were administered to mice in a volume of 0.01 mL/g of body weight (White H. S., et al., General Principles: Experimental selection, quantification, and evaluation of antiepileptic drugs, in Antiepileptic Drugs, Fourth Edition, […], and B. S. Meldrum, Editors. 1995, Raven Press, Ltd.: New York, pp. 99-110). For subcutaneous (s.c.) administration, the test compounds were administered into a loose fold of skin along the back of the animal except compound 6-b, which was administered orally (p.o). […] The animals were maintained on an adequate diet (Prolab RMH 3000) and allowed free access to food and water, except during the short time they were removed from their cage for testing. Animals newly received in the laboratory were allowed sufficient time to correct for possible food and water restriction incurred during transit before being employed in testing. All mice were housed in plastic cages in specially constructed rooms with controlled humidity, exchange of air and controlled lighting (12 hours on-12 hours off). The animals were housed, fed, and handled in a manner consistent with the recommendations in the National Council Publication, “Guide for the Care and Use of Laboratory Animals”. In the determination of an ED50 or TD50 for each test compound, the first dose administered is usually the same dose as that used in a successful TPE determination. […] Third and fourth doses were selected to produce an evenly spaced dose response line. […] The 6 Hz seizure test is used as a model of pharmacoresistant limbic seizures. […] Focal seizures were induced in mice via corneal stimulation (6 Hz, 0.2 msec rectangular pulse, 3 sec duration; Barton et al. 2001). Mice were tested at either 32 mA or 44 mA. […] The seizures that arise from corneal stimulation in this assay are characterized by a minimal clonic phase followed by stereotyped automatistic behaviors including stun, forelimb clonus, twitching of the vibrissae, and Straub-tail. Animals not displaying these behaviors were considered protected. […] In addition to recording the efficacy and toxicity data for these compounds alone or in combination, both plasma and brain samples were collected from each of the groups for pharmacokinetic/pharmacokinetic analysis. No pharmacokinetic interaction was observed based on compound levels in the plasma and brain samples (data not shown). Isobolographic studies were conducted for the combined administration of Co. […] Studies were conducted according to previously described methods (Madsen et al. 2011). Initial ED50 values were determined for both Co. […] Co. […] Doses used were proportional to calculated ED50 values. […] Experimental treatment doses (see Table 4) were based on theoretical values and adjusted according to observed effects. Experimentally determined ED50 (+SEM) values for each fixed dose-ratio combination were compared to the theoretical values (t-test) for statistical purposes. […] Subsequently, the experimental combined doses were determined for the same paradigms in the 6 Hz seizure test (Table 4 below).

[4] = Plasma and brain levels (pK/pD analysis); type: in vivo, mice; conditions: for concentration at 0.25 h: mouse, subcutaneous
Description: In various tests, animals were sacrificed following testing, and trunk blood and/or brain tissue (whole brains) was collected for quantification of drug levels. Immediately after testing, animals were decapitated and trunk blood was collected into a BD Vacutainer® tube containing K2EDTA and chilled on ice until centrifugation. Following centrifugation (13000-18000 rpm, 5-7 min), the plasma was removed and transferred to a labeled microcentrifuge tube and stored at −80° C. For brain tissue collection, brains were removed immediately following decapitation and flash frozen. The frozen sample was placed in a labeled centrifuge tube and stored at −80° C.
In addition to recording the efficacy and toxicity data for these compounds alone or in combination, both plasma and brain samples were collected from each of the groups for pharmacokinetic/pharmacokinetic analysis.

human mGlu2 receptor = target: T1, human mGlu2 receptor (Homo sapiens, UniProt Q14416); test: [35S]GTPγS binding assay, mGluR2 PAM; type: biochemical; conditions: maximal % effect relative to control glutamate response; EC20 glutamate; read-out: GTPγS-hmGluR2 PAM Emax
T1 construct: expressed in transfected cells; host or cells: CHO cells
T1 sequence (Q14416 19-872): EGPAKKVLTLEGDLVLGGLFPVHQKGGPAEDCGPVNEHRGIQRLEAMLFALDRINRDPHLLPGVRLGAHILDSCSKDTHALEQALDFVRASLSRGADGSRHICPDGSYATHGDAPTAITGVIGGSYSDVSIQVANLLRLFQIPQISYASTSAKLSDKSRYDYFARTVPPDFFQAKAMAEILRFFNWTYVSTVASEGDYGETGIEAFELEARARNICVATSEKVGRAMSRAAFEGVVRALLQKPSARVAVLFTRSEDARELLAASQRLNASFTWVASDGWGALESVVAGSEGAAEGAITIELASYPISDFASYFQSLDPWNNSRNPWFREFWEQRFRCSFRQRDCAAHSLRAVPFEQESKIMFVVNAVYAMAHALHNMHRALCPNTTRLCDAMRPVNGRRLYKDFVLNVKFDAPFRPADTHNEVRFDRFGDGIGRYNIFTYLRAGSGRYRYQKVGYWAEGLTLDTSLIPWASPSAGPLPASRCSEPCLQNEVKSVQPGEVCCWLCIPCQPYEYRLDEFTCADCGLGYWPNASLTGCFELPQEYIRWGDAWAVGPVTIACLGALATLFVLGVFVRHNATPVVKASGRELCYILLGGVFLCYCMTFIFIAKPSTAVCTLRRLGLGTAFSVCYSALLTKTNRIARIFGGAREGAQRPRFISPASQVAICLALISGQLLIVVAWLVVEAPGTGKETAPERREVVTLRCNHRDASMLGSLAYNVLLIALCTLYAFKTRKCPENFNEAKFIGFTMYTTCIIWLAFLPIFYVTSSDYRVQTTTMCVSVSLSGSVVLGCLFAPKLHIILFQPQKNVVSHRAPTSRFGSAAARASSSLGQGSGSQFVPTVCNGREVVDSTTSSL

6 Hz seizures = conditions: dose-dependent manner; cited from earlier work
MES seizures = conditions: in vivo; cited from earlier work
[5] = Mus musculus, sc, compound alone
[6] = Co. No. 2 3 mg/kg combined with LEV 10 mg/kg, 6 Hz 44 mA

Compound: CCC[C@@H]1CC(=O)N([C@@H](CC)C(N)=O)C1 [Brivaracetam, (2S)-2-[(4R)-oxo-4-propyl-pyrrolidin-1-yl]butanamide]
- effect on severity of dystonia (paroxysmal dystonia): reduce the severity of dystonia

Compound: CCCCn1ccc(N2CCC(c3ccccc3)CC2)c(Cl)c1=O [Co. No. 2-a]
- # rotarod motor impairment/# tested ([1]; 2.5 mg/kg s.c., 32 mA group): 1/8
- # rotarod motor impairment/# tested ([1]; 5 mg/kg s.c., 32 mA group): 0/8
- # rotarod motor impairment/# tested ([1]; 10 mg/kg s.c., 32 mA group): 0/8
- # rotarod motor impairment/# tested ([1]; 10 mg/kg s.c., 44 mA group): 1/8 and 0/8
- # rotarod motor impairment/# tested ([1]; 15 mg/kg s.c., 44 mA group): 1/8
- # rotarod motor impairment/# tested ([1]; 20 mg/kg s.c., 32 mA group): 3/8
- # rotarod motor impairment/# tested ([1]; 20 mg/kg s.c., 44 mA group): 0/8
- # rotarod motor impairment/# tested ([1]; 40 mg/kg s.c., 32 mA group): 2/8
- # rotarod motor impairment/# tested ([1]; 40 mg/kg s.c., 44 mA group): 4/8
- TD50 at 0.5 h ([1]; mouse, in vivo, sc, rotarod): > 40 mg/kg
- # protected/# tested ([2]; 2.5 mg/kg s.c.): 0/8
- # protected/# tested ([2]; 5 mg/kg s.c.): 0/8
- # protected/# tested ([2]; 10 mg/kg s.c.): 4/8
- # protected/# tested ([2]; 20 mg/kg s.c.): 6/8
- # protected/# tested ([2]; 40 mg/kg s.c.): 8/8
- ED50 (95% CI) 32 mA [2]: ED50 (95% CI): 12.2 mg/kg (8.4 to 17.4)
- Seizure score (dose) Corneal kindling (corneal kindled seizures; 100 mg/kg s.c.): 4.4
- activity when administered alone ([3]; 10 mg/kg s.c.): ^aCo. No. 2-a (s.c.) 10 mg/kg tested in combination with LEV (i.p.); Co. No. 2-a 10 mg/kg, not active when administered alone; also recorded: ^bCo. No. 2-a (s.c.) 10 mg/kg tested in combination with LEV (i.p.); Co. No. 2-a 10 mg/kg, not active when administered alone
- % protection 44 mA ([3]; 100 mg/kg s.c.): 50% protection at
- responders at 10 mg/kg ([3]; Mus musculus, sc, 0.5 h, 10 mg/kg s.c., 0.5 h, read-out: # protected/# tested (converted)): 0%
- responders at 15 mg/kg ([3]; Mus musculus, sc, 0.5 h, 15 mg/kg s.c., 0.5 h, read-out: # protected/# tested (converted)): 25%
- responders at 20 mg/kg ([3]; Mus musculus, sc, 0.5 h, 20 mg/kg s.c., 0.5 h, read-out: # protected/# tested (converted)): 37.5%
- responders at 40 mg/kg ([3]; Mus musculus, sc, 0.5 h, 40 mg/kg s.c., 0.5 h, read-out: # protected/# tested (converted)): 100%
- ED50 [3, 5]: 21 mg/kg

Compound: FC(F)(F)c1c(N2CCC(c3ccccc3)CC2)ccn2c(CC3CC3)nnc12 [Co. No. 2]
- ED50 [2]: 3.83 mg/kg
- Seizure score (dose) Corneal kindling (corneal kindled seizures; 40 mg/kg s.c.): 3.4
- Brain (ng/ml) Co. No. 2, individual mice [4, 6]: 1120 ng/mL and 1140 ng/mL and 1540 ng/mL and 1020 ng/mL
- Plasma (ng/ml) Co. No. 2, individual mice [4, 6]: 4700 ng/ml and 467 ng/ml and AQL and (>500) ng/ml and 2080 ng/ml and 1830 ng/ml and 386 ng/ml
- concentration at 0.25 h ([4]; brain, 3 mg/kg, Mean Brain Level (non-combination) Co. No. 2, Co. No. 2 3 mg/kg alone): 1110 ng/mL
- concentration at 0.25 h ([4]; brain, Brain (ng/ml) Co. No. 2, individual mice, Co. No. 2 3 mg/kg combined with LEV 10 mg/kg, 6 Hz 44 mA): 1310 ng/mL
- concentration at 0.25 h ([4]; brain, Mean Brain Level Co. No. 2, Co. No. 2 3 mg/kg combined with LEV 10 mg/kg): 1230 ng/mL
- concentration at 0.25 h ([4]; plasma, 3 mg/kg, Mean Plasma Level (non-combination) Co. No. 2, Co. No. 2 3 mg/kg alone): 1300 ng/mL
- concentration at 0.25 h ([4]; plasma, Mean Plasma Level Co. No. 2, Co. No. 2 3 mg/kg combined with LEV 10 mg/kg): 1890 ng/mL
- responders at 3 mg/kg ([3]; Mus musculus, sc, 0.25 h, 3 mg/kg s.c., 0.25 h, read-out: # protected/# tested (converted)): 16.7%
- ED50 [3, 5]: 5.89 mg/kg
- Maximum Effect (% Protection) ([3]; compound alone): 100%

Compound: FC(F)(F)Cc1nnc2c(Cl)c(N3CCC(F)(c4ccccc4)CC3)ccn12 [Co. No. 11]
- Emax (human mGlu2 receptor): 310%
- ED50 [2]: 4.77 mg/kg
- ED50 (95% CI) 32 mA [2]: 9.41 (1.53-15.1) mg/kg
- Seizure score (dose) Corneal kindling (corneal kindled seizures; 100 mg/kg s.c.): 2.8
- ED50 [3, 5]: 31.5 mg/kg

Compound: N[C@@]1(C(=O)O)CO[C@H]2[C@H](C(=O)O)[C@H]21 [LY379268]
- activity in the 6 Hz model (6 Hz seizures): effective
- activity in maximal electroshock (MES) seizure test (MES seizures): ineffective

Compound: CC[C@@H](C(N)=O)N1C[C@H](C=C(F)F)CC1=O [Seletracetam, (2S)-2-[(4S)-4-(2,2,-difluorovinyl)-2-oxo-pyrrolidin-1-yl]butanamide]
- effect on severity of dystonia (paroxysmal dystonia): reduce the severity of dystonia
